Measured values: patent US20130122541A1, “MICROORGANISM PRODUCTION OF HIGH-VALUE CHEMICAL PRODUCTS, AND RELATED COMPOSITIONS, METHODS AND SYSTEMS” (The Regents of the University of Colorado, priority 2010, published 2013)

Assays:
E. coli = assay: microbe, parasite or virus in culture; assay type: cell-based; conditions: anaerobic
Description: For MIC evaluations, the final results are expressed in chemical agent concentrations determined by analysis of the stock solution by HPLC (i.e., see Subsection IIIb).
The minimum inhibitory concentration (MIC) was determined anaerobically in a 96 well-plate format. […] Media supplements were added according to levels reported in the Supplements Table, where specified. Overnight cultures of strains were grown in triplicate in 5 mL LB (with antibiotic where appropriate). A 1% (v/v) inoculum was introduced into a 5 ml culture of M9 minimal media.

[1] = Reactive extraction of 3-HP from clarified fermentation broth into tertiary amine non-polar phase with co-solvents; assay type: physicochemical; conditions: for 3-HP concentration raffinate: start 96.85 g/L 3-HP, single pass
Description: Calcium chloride at 1 M was added as a flocculent to reach a final concentration of about 8.2 g/L. Thereafter the pH was adjusted to a pH of approximately 2.0 using sulfuric acid. Thereafter a volume of this modified fermentation broth was centrifuged at approximately 3,200 g for 5 minutes to yield a clarified broth and a pellet, which was discarded.
Portions of the clarified broth were then subjected to reactive extraction by mixing with a tertiary amine non-polar phase comprising various co-solvents. […] Amines included Alamine 336, described above, and tripentylamine.

[2] = sample 1: Alamine 336 with Butanol
[3] = sample 2: Tripentylamine with Butanol
[4] = sample 3: Tripentylamine with p-Xylene
[5] = sample 4: Tripentylamine with Methyl ethyl ketone
[6] = sample 5: Tripentylamine with Methyl tert-butyl ether
[7] = sample 1: Alamine 336 with Butanol, 3-HP mass start 0.97 G
[8] = sample 2: Tripentylamine with Butanol, 3-HP mass start 1.94 G
[9] = sample 3: Tripentylamine with p-Xylene, 3-HP mass start 1.94 G
[10] = sample 4: Tripentylamine with Methyl ethyl ketone, 3-HP mass start 1.94 G
[11] = sample 5: Tripentylamine with Methyl tert-butyl ether, 3-HP mass start 1.94 G

With O=C(O)CCO [3-HP, 3-hydroxypropionic acid] the “% Increase Over Control” value (E. coli; strain BX_00319.0 (pK223-aroH)) was 33%, the “% Increase Over Control” value (E. coli; strain BX_00320.0 (pK223-metE C645A)) was 33% and the “% Increase Over Control” value (E. coli; strain BX_00321.0 (pK223-ct-his-thrA)) was 33%. For the same molecule, the “% Increase Over Control” value (E. coli; strain BX_00322.0 (pJ61-speFED)) was 67%, the “% Increase Over Control” value (E. coli; strain BX_00323.0 (pJ61-aroG)) was 33% and the “% Increase Over Control” value (E. coli; strain BX_00324.0 (pJ61-thrA)) was 33%. The “% Increase Over Control” value (E. coli; strain BX_00325.0 (pJ61-asd)) was 33%, the “% Increase Over Control” value (E. coli; strain BX_00326.0 (pJ61-ilvA)) was 33% and the “% Increase Over Control” value (E. coli; strain BX_00327.0 (pJ61-cysM)) was 33%. For the same molecule, the “% Increase Over Control” value (E. coli; strain BX_00357.0 (pKK223-aroH*445)) was 33%, the “% Increase Over Control” value (E. coli; strain BX_00358.0 (pKK223-aroH*447)) was 33% and the “% Increase Over Control” value (E. coli; strain BX_00359.0 (pKK223-aroH*457)) was 33%. For the same molecule, the “% Increase Over Control” value (E. coli; strain BX_00360.0 (pACYC177 (Kan only)-cynTS)) was 33%, the “% Increase Over Control” value (E. coli; strain BX_00362.0 (pACYC177 (Kan only)-aroH)) was 33% and the “% Increase Over Control” value (E. coli; strain BX_00363.0 (pACYC177 (Kan only)-speB)) was 33%. The “% Increase Over Control” value (E. coli; strain BX_00364.0 (pACYC177 (Kan only)-metE)) was 33%, the “% Increase Over Control” value (E. coli; strain BX_00365.0 (pACYC177 (Kan only)-metC)) was 33% and the “% Increase Over Control” value (E. coli; strain BX_00368.0 (pBT-3-cynTS)) was 33%. For the same molecule, the “% Increase Over Control” value (E. coli; strain BX_00426.0 (ΔnrdR::frt, pSmart-HC-Amp-cadA)) was 7%, the “Total 3HP extracted” value [1, 2] was 0.59 G and the “Total 3HP extracted” value [1, 3] was 1.13 G. For the same molecule, the “Total 3HP extracted” value [1, 4] was 0.46 G, the “Total 3HP extracted” value [1, 5] was 1.31 G and the “Total 3HP extracted” value [1, 6] was 0.73 G. It also gave a % 3-HP extracted [1, 2] of 61%, a % 3-HP raffinate [1, 2] of 39% and a 3-HP concentration raffinate ([1]; sample 1: Alamine 336 with Butanol co-solvent) of 53.94 g/L. For the same molecule, the 3-HP mass extractant [1, 7] was 0.59 G, the 3-HP mass raffinate [1, 7] was 0.38 G and the % 3-HP extracted [1, 3] was 58%. For the same molecule, the % 3-HP raffinate [1, 3] was 42%, the 3-HP concentration raffinate ([1]; sample 2: Tripentylamine with Butanol co-solvent) was 54.17 g/L and the 3-HP mass extractant [1, 8] was 1.13 G. The 3-HP mass raffinate [1, 8] was 0.81 G, the % 3-HP extracted [1, 4] was 24% and the % 3-HP raffinate [1, 4] was 76%. The 3-HP concentration raffinate ([1]; sample 3: Tripentylamine with p-Xylene co-solvent) was 78.69 g/L, the 3-HP mass extractant [1, 9] was 0.46 G and the 3-HP mass raffinate [1, 9] was 1.47 G. For the same molecule, the % 3-HP extracted [1, 5] was 67%, the % 3-HP raffinate [1, 5] was 33% and the 3-HP concentration raffinate ([1]; sample 4: Tripentylamine with Methyl ethyl ketone co-solvent) was 52.75 g/L. The 3-HP mass extractant [1, 10] was 1.31 G, the 3-HP mass raffinate [1, 10] was 0.63 G and the % 3-HP extracted [1, 6] was 38%. For the same molecule, the % 3-HP raffinate [1, 6] was 62%, the 3-HP concentration raffinate ([1]; sample 5: Tripentylamine with Methyl tert-butyl ether co-solvent) was 67.64 g/L and the 3-HP mass extractant [1, 11] was 0.73 G. It also gave a 3-HP mass raffinate [1, 11] of 1.21 G.
